Data: patent US7011834B1, “Immunomodulating dimers” (The Board of Trustees of Leland Stanford Junior University, priority 1987, dated 2006)
Where no end group is shown, it is not given here.

Legend:
[1] = system: CD8+CTL line specific for HLA-A2; experiment: Cytotoxicity assay: inhibition of lysis by established CTL, 51Cr-labeled JY targets; type: cell-based, human; conditions: for inhibition of lysis by established CTL: HLA-A2 specific CD8+CTL, JY targets, peptides 100 μg/ml, 4 h assay
Protocol: Cytotoxicity Assay. CTL assays were performed as described using ^51Cr-labeled EBV transformed B cells expressing the appropriate HLA allele as targets [[…] et al., J. Immunol. (1982) 129:2001]. In the present protocol, a CD8+CTL line specific for HLA-A2 was tested in the presence of various peptides for lysis of ^51Cr-labeled JY targets. Peptides were added to a final concentration of 100 μg/ml at the initiation of the 4 h assay. Each determination was the mean of triplicate wells. […] In these determinations, inhibition of cytolysis, as described above, employed the CTL cell line AJY, a long term CD8+CTL line specific for HLA-A2 and the target cell was the B-lymphoblastoid cell line JY (HLA-A2, B7). The cytotoxicity assay was performed as described by Clayberger et al., J. Exp. Med. (1984) 162:1709-1714; and Reiss et al., Proc Natl Acad Sci USA (1980) 77:5432-5436. The peptides were preincubated for 30 min with 1-3×10^3 CTLs before addition of 10^3 51Cr-labeled B-lymphoblastoid target cells. The results are reported for varying concentrations of the peptide with varying ratios of the two cell lines.

[2] = Half-life of peptide in rats; conditions: rat, in vivo, preliminary studies
Protocol: Therefore, we tested whether splenocytes obtained from rats treated with the peptides in vivo could differentiate into CTL ex vivo. In preliminary studies, the half-life of the B7.75-84 peptide was determined to be 2–3 hours in rats.

[3] = system: Lew specific CTL precursors in splenocytes; experiment: Limiting dilution assay for CTL precursors in splenocytes after in vivo peptide; design: species or system rat; conditions: PVG rats; for [CTL precursor frequency]^−1: single iv 2 mg, Lew stimulators
Protocol: The effect of peptides on CTL precursor frequencies in splenocytes was tested as follows. Limiting dilution analysis was carried out essentially as described (Moeller et al. 1993, supra; Skinner and Marbrook. J. Exp. Med. (1976) 143:1562). Briefly, spleens were removed from naive animals or from animals that had received an allograft a minimum of 60 days earlier and then teased into a single cell suspension. Responder cells were plated from 1000 to 40,000 cells per well (24 replicates per concentration) into round bottom microliter wells in RPMI 1640 supplemented with 10% fetal bovine serum (Hyclone, Logan, Utah), 2 mM L-glutamine, 5×10^−5M β-mercaptoethanol, 100 U/ml penicillin, 100 μg/ml streptomycin, 20% supernatant from Concanavalin A activated rat spleen cells, and 50 μM α-methyl mannoside. Then, 5×10^5 irradiated (2000 rads) stimulator cells were added to each well and plates were incubated in a humidified CO2 incubator. After 5 days, aliquots were removed and tested for lysis of ^51Cr-labeled Concanavalin A activated blasts. Aliquots of supernatant were counted in a gamma counter and CTL precursor frequency determined by linear regression (Skinner and Marbrook. 1976, supra). Wells were considered positive if specific release was >10%.
PVG (RT1^c) or ACI […] rats were treated with a single intravenous injection of saline or 2 mg of A2.75-84, B7.75-84, B2702.75-84, or RT1^a.75-84 peptide. Their spleens were removed on different days after peptide treatment, cultured under limiting dilution conditions for 5 days with irradiated (2000R) splenocytes from Lewis rats; i.e., Lew (RT1^1) stimulator cells, and assayed for lysis of ^51Cr-labeled Lew blasts. CTL precursor frequency was determined by linear regression analysis.

## B2702.75–84T^80: SEQ ID NO:25; threonine replaces isoleucine at position 80: RENLRTALRY (listed as Homo sapiens)
[1]
  inhibition of lysis by established CTL: did not inhibit lysis

## B2702.70–84: SEQ ID NO:33, the 15-mer; Table 1 sequence read from dashes: KAQTDRENLRIALRY (listed as Homo sapiens)
[1]
  inhibition of lysis by established CTL: comparably effective in inhibiting cytolysis to B2072.75-84

## REDLRIALRY (listed as Homo sapiens) [B2702.75–84D^77, aspartic replaces asparagine at position 77]
[1]
  inhibition of lysis by established CTL: did not inhibit lysis

## WDRETQICKAKAQTDRENLRIALRY [B2702.60–84]
[1]
  potency relative to B2702.75-84, based on concentration required to achieve 50% inhibition of cytotoxicity: approximately 5 fold

## B7.84–75/75–84: SEQ ID NO:27 (also NO:35); Table 1 sequence read from dashes: YGRLNRLSERRESLRNLRGY (listed as Homo sapiens)
[1]
  inhibition of lysis by established CTL: did not inhibit CTL-mediated lysis at any concentration tested

## RESLRNLRGY [B7.75–84]
[2]
  half-life: 2 to 3 h

## RENLRILLRY (listed as Homo sapiens) [B2702.75–84L^81, leucine replaces alanine at position 81]
[1]
  inhibition of lysis by established CTL: inhibited lysis comparably to 02.75-84

## RVDLRTLRGY (listed as Homo sapiens) [RT1A.75–84, peptide corresponding to the same residues from a rat MHC class I molecule, reference compound]
[3]; 0 days after peptide injection
  [CTL precursor frequency]^−1: 56,583
[3]; 1 day after peptide injection
  [CTL precursor frequency]^−1: 54,631
[3]; 7 days after peptide injection
  [CTL precursor frequency]^−1: 55,647
[3]; 10 days after peptide injection
  [CTL precursor frequency]^−1: 56,583
[3]; independent of the day on which the spleen was removed
  precursor frequency of Lew specific cells in splenocytes (1 in): ~55,000
